According to PubChem BioAssay AID179 (DTP/NCI, 2004):
Activity calls are given as the source filed them.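 How the source made its calls: active means compounds giving half or more protection of infected cells from virus-caused growth loss, again on retest; inactive means the rest.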 Where a SMILES comes first, the peptide text is derived from it. [ ]: non-standard residue; d: D form. The star is where a group is joined. ξ: configuration not given here. Hpg = N[CH](C(=O)O)c1ccc(O)cc1; Boc = CC(C)(C)OC(=O)*; ξV = CC(C)C(N)C(=O)O; OBn = c1ccc(CO*)cc1

Tested on: CEM cells HIV-1 protection, formazan growth assay
Test: NCI AIDS Antiviral Assay
Settings: for IC50: measured here: growth of uninfected CEM cells
Summary of the method: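 Soluble formazan readout of cell growth; CEM cells ± HIV-1; 5 drug concs. ≥50% protection → retest; ≥50% again = moderately active; reproducible 100% = confirmed active.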

SMILES | EC50 [µM] | IC50 [µM] | outcome
CCOC(=O)C(NC(=O)c1ccccc1)(N1CCN(c2cc3c(cc2F)c(=O)c(C(=O)O)cn3CC)CC1)C(F)(F)F (stereo not given) | > 200 | 34.7 | –
CC(=O)OCC1OC(n2c(C)c(N=Nc3ccccc3)c(C)c(C#N)c2=S)C(OC(C)=O)C(OC(C)=O)C1OC(C)=O (stereo not given) | > 200 | > 200 | –
O=C1c2scc(-c3ccc(Cl)cc3)c2-n2cccc21 | > 200 | > 200 | –
CSc1ccc(/C=N\C(=N)SN)cc1C | > 200 | 18.6 | –
CC(=O)OCC1OC(n2cc(C)c(-n3cncn3)nc2=O)CC1N=[N+]=[N-] (stereo not given) | > 200 | 11.5 | –
CC(=O)/C(=C/c1ccc(-c2ccccc2)cc1)C(=O)c1ccccc1 | 1.58 | 15.8 | –
O=C1CSC(=O)N1c1ccccc1 | > 186 | > 186 | –
COc1ccc(Cc2c3cc(O)c(=O)cc-3ccn2C)cc1 | > 33.9 | 6.46 | –
CC(=O)Nc1ccc(-c2nnc(SCC(=O)Nc3cccc(C)c3)o2)cc1 | > 67.6 | 11.7 | –
COP(C)(=O)C1=CCN(C(=O)OCC[Si](C)(C)C)CC1 (stereo not given) | > 200 | > 200 | –
OC1CC[C@H](Cl)C2=C1[C@@]13C[C@]14OCCC3OC2[C@@H]4Cl (stereo not given in full) | > 427 | > 427 | –
Cn1cc2ccccc2c1-c1nc(F)nc(OCC(=O)[C@H]2CCC3[C@@H]4CCC5=CC(=O)CC[C@]5(C)C4[C@@H](O)C[C@@]32C)n1 (stereo not given in full) | > 9.12 | 2.75 | –
Cc1cc(N(CCC#N)CCC#N)ccc1/C(N=Nc1ccccc1)=N\NC(=O)c1ccccc1 | > 200 | 13.8 | –
CC(C)(Cc1ccccc1)C(=C=C=C=C(c1ccccc1)C(C)(C)Cc1ccccc1)c1ccccc1 | > 46.8 | > 46.8 | –
Brc1ccc(OCc2ccccc2)c2ccccc12 | > 200 | 63.1 | –
Nc1[nH]c(=O)[nH]c(=O)c1N=O | > 200 | > 200 | –
CCOC(OCC)[C@H](N)[C@@H](O)[C@@H](O)[C@H]1COC(C)(C)O1 | > 200 | > 200 | –
O=C1CCCC1CN1CCCC1 (stereo not given) | – | – | inactive
COCCNC1CCC2(SCCS2)c2[nH]c3ccccc3c21 (stereo not given) | > 200 | 39.8 | –
CNC1=C(C)C(=O)C(=O)C([C@H](C)CCC=C(C)C)=C1O | > 200 | 6.17 | –
COc1ccc(N2C(=O)C3c4[nH]c5ccccc5c4C4CCC(C(C)(C)C)CC4C3C2=O)c(C)c1 (stereo not given) | > 200 | > 200 | –

SMILES | EC50 [µM] | IC50 [µM] | outcome
COc1ccc(N2C(=O)C3c4[nH]c5ccccc5c4C4CCC(c5ccccc5)CC4C3C2=O)cc1 (stereo not given) | > 100 | > 100 | –
COC(=O)C1CCN(C(=O)OC(C)(C)C)CC1 | > 200 | > 200 | –
CNCCSSCCN | > 200 | > 200 | –
COC1/C=C/OC2(C)Oc3c(C)c(O)c4c(O)c(c(/C=N/N5C(C)CN(Cc6cccc(O)c6)CC5C)c(O)c4c3C2=O)NC(=O)/C(C)=C\C=C\C(C)C(O)C(C)C(O)C(C)C(OC(C)=O)C1C (stereo not given) | > 200 | 6.46 | –
CC1(N2CCOCC2)CC2C(=[N+]1[O-])CCC/C2=N/O (stereo not given) | > 200 | > 200 | –
COc1cccc(C2C(C(=O)O)=C(CO)Oc3cc4c(cc32)OCO4)c1OC (stereo not given) | – | – | inactive
CC(=O)CC(=O)ON(C)C(C)=O | > 1450 | > 1450 | –
CCCCCO/N=C\c1c2c(O)c3c(O)c(C)c4c(c3c1O)C(=O)C(C)(O/C=C\C(OC)C(C)C(OC(C)=O)C(C)C(O)C(C)C(O)C(C)/C=C\C=C(\C)C(=O)N2)O4 (stereo not given) | > 200 | 8.91 | –
O=C(O)C1C2OC3C(OC(=O)C31)C2Br (stereo not given) | > 200 | > 200 | –
COC1=CC(=O)[C@]2(C)[C@H](C1=O)C(C)[C@H]2c1ccccc1 (stereo not given in full) | > 95.5 | > 95.5 | –
COc1ccc(C2SCc3nc4ccccc4n32)cc1 (stereo not given) | – | – | inactive
CN(CCCn1ccnc1[N+](=O)[O-])CCCn1ccnc1[N+](=O)[O-] | > 200 | 83.2 | –
CCCCCSSSCCCCC | > 200 | 34.7 | –
CC1(C)OC(=O)c2c(cc(N3CCOCC3)oc2=O)O1 | > 200 | > 200 | –
Cc1cc(=O)c2cc3ccc4c5[nH]c(C)cc(=O)c5cc5ccc(c2[nH]1)c3c54 | > 200 | 33.9 | –
CC(C)CC(N)C(=O)NC(C(N)=O)c1ccc(O)cc1 (stereo not given) (H-Leu-[Hpg]-NH2; configuration not given here) | > 200 | > 200 | –
c1ccc(-c2nnc(SSSSc3nnc(-c4ccccc4)o3)o2)cc1 | > 200 | 107 | –
CCCCCCCCCC=C(c1cc(Cl)c(OC)c(C(=O)OC)c1)c1cc(Cl)c(OC)c(C(=O)OC)c1 | > 23.4 | > 23.4 | –
CCOC(=O)C(Cl)(NC(=O)c1ccc(F)cc1)C(F)(F)F (stereo not given) | > 200 | > 200 | –
CCC(C)COC(=O)c1ccc(N=Cc2ccc(C=Nc3ccc(C(=O)OCC(C)CC)cc3)cc2)cc1 (stereo not given) | > 2.82 | > 2.82 | –
Nc1ccc2c(c1)[O][Sn]([c]1ccccc1)([c]1ccccc1)[O]C2=O | – | – | inactive

SMILES | EC50 [µM] | IC50 [µM] | outcome
O=C1N(c2ccccc2)C2(O)C(=O)c3ccccc3C2(O)N1c1ccccc1 (stereo not given) | > 676 | 110 | –
Cc1nnc(NC2=NCCO2)s1 | > 200 | > 200 | –
Cc1noc(C)c1CCCOC1COc2ccccc2OCCOCCOc2ccccc2OC1 | > 100 | > 100 | –
CCN(CC)CCNCC(O)CN1CCN(C)CC1 (stereo not given) | > 200 | 155 | –
COc1cccc2c1OC1c3ccccc3OCC1(O)C2 (stereo not given) | – | – | inactive
COC(=O)c1cc(=O)nc(N/N=C/c2ccc(C)cc2)s1 | > 44.7 | 30.9 | –
O=C(O)c1c[nH]c2c(ccc3[nH]cc(C(=O)O)c(=O)c32)c1=O | > 200 | > 200 | –
CSc1ncc2c(n1)sc1c(=O)n(-c3ccccc3)cnc12 | > 200 | > 200 | –
COc1ccc(-c2cc(-c3ccccc3)c(C#N)c(=O)n2C2OC(COC(C)=O)C(OC(C)=O)C(OC(C)=O)C2OC(C)=O)cc1 (stereo not given) | > 15.8 | > 15.8 | –
O=C(CC1(O)C(=O)Nc2ccc(Br)cc21)c1ccc(Cl)cc1 (stereo not given) | > 93.3 | > 93.3 | –
CCOc1ccc(NC(=O)C(=O)C2C(=O)Nc3ccccc3S2=O)cc1 (stereo not given) | > 50.1 | > 50.1 | –
CC(C)(C)[Si](C)(C)OCCCCC1CC2(S(=O)(=O)C3=CC=C=C=C3)ON1CC2S(=O)(=O)c1ccccc1 (stereo not given) | > 45.7 | > 45.7 | –
CCc1cc(-c2ccco2)c(C#N)c(=S)n1C1OC(COC(C)=O)C(OC(C)=O)C(OC(C)=O)C1OC(C)=O (stereo not given) | > 200 | 79.4 | –
O=C(c1ccccc1SSc1ccccc1C(=O)N1CSC[C@@H]1CO)N1CSC[C@H]1CO | > 200 | 107 | –
COC(=O)CCN1CCN(CCO)CC1C (stereo not given) | > 200 | > 200 | –
CC[C@H](CCCCC1CC[C@@H]2CC(=O)C[C@H]12)OC (stereo not given in full) | > 200 | > 200 | –
c1ccc(-c2c(-c3ccccc3)c2=NN(c2ccccc2)c2ccccc2)cc1 | > 200 | 11 | –
Cc1ccc(C(=O)Nc2ccc(S(=O)(=O)O)c3cc(S(=O)(=O)O)cc(S(=O)(=O)O)c23)cc1NC(=O)c1cccc(NC(=O)Nc2cccc(C(=O)Nc3cc(C(=O)Nc4ccc(S(=O)(=O)O)c5cc(S(=O)(=O)O)cc(S(=O)(=O)O)c45)ccc3C)c2)c1 | 34.7 | 174 | –
C1=Cc2nc1c(-c1ccccc1)c1ccc([n-]1)c(-c1ccccc1)c1nc(c(-c3ccccc3)c3ccc([n-]3)c2-c2ccccc2)C=C1.[Zn+2] | > 27.5 | > 27.5 | –
N=c1oc2ccccc2cc1-c1nc2ccccc2[nH]1 | – | – | inactive
O=C(O)C1OC12CCCCC2 (stereo not given) | > 200 | > 200 | –

SMILES | EC50 [µM] | IC50 [µM] | outcome
CC(C)C(NC(=O)OC(C)(C)C)C(=O)NCC(=O)OCc1ccccc1 (stereo not given) (Boc-[ξV]-Gly-OBn) | > 200 | 28.2 | –
N#Cc1c(Cl)nc2ccccc2c1N=[N+]=[N-] | > 200 | 0.912 | –
COc1ccccc1Cc1nc(-c2ccccc2)nn(C2OC(COC(C)=O)C(OC(C)=O)C(OC(C)=O)C2OC(C)=O)c1=S (stereo not given) | – | – | inactive
O=C1C(c2ccccc2)=C(c2ccccc2)C(c2ccc(Sc3ccc(C4=C(c5ccccc5)C(=O)C(c5ccccc5)=C4c4ccccc4)cc3)cc2)=C1c1ccccc1 | > 1.82 | > 1.82 | –
COc1ccc(-c2c(C#N)c(S)n(C3OC(COC(C)=O)C(OC(C)=O)C(OC(C)=O)C3OC(C)=O)c(=O)c2C#N)cc1 (stereo not given) | > 200 | > 200 | –
COc1ccc(C2CC(=O)c3ccccc3O2)cc1OC (stereo not given) | > 200 | 40.7 | –
CC(C)C1=CC2=CCC3C(C)(CN)CCCC3(C)C2CC1CCN (stereo not given) | > 100 | 1.48 | –
CC(C)CCC[C@@H](C)C1CCC2[C@@H]3CC=C4C[C@@H](OP(=O)(O)OCCN(C)C)CC[C@]4(C)C3CC[C@@]21C (stereo not given in full) | > 87.1 | 11.7 | –
CO/N=C(\C(=O)Nc1cncs1)c1csc(N)n1 | > 200 | > 200 | –
CCCCNC(=O)Sc1ccccc1C(=O)NCCS(N)(=O)=O | 0.141 | 50.1 | –
C/C=C(\CCC1NCCc2c1[nH]c1ccccc21)[Si](C)(C)C (stereo not given) | – | – | inactive
CCC1(CC)CC(=NNS(=O)(=O)c2ccc(C)cc2)C1 | – | – | inactive
O=c1/c(=C\c2ccccc2)sc2n1C(c1ccccc1)C1(O)CCCCC1N=2 (stereo not given) | > 200 | 60.3 | –
C=C=C(C(=O)OC)S(=O)c1ccccc1[N+](=O)[O-] (stereo not given) | – | – | inactive
CNc1ncnc2c1cnn2CCCCO | > 200 | > 200 | –
CC1(C)CCCCCC(C)(CCCCCCCCCCCO)C1=O (stereo not given) | > 200 | 30.2 | –
O=C(c1ccc(O)cc1O)C1C(c2ccc(O)cc2)OC(c2ccc(O)cc2)C1C(=O)c1ccc(O)cc1O (stereo not given) | – | – | inactive
N#Cc1c2n(c(=S)n(-c3ccccc3)c1=O)CCCCCCC2 | > 200 | 162 | –
COc1ccc(NC(C)=O)cc1N1C(=O)/C(=C\c2cccc(Oc3ccccc3)c2)SC1c1ccccc1 (stereo not given) | > 200 | 18.6 | –
O=C1C=C(Br)C(=O)C(Br)=C1 | > 257 | 23.4 | –
